This experiment addresses T1, Recombinant CETP enzyme (Homo sapiens, UniProt P11597).
T1 construct: purchased Cardiovascular Targets
T1 sequence (P11597 18-493): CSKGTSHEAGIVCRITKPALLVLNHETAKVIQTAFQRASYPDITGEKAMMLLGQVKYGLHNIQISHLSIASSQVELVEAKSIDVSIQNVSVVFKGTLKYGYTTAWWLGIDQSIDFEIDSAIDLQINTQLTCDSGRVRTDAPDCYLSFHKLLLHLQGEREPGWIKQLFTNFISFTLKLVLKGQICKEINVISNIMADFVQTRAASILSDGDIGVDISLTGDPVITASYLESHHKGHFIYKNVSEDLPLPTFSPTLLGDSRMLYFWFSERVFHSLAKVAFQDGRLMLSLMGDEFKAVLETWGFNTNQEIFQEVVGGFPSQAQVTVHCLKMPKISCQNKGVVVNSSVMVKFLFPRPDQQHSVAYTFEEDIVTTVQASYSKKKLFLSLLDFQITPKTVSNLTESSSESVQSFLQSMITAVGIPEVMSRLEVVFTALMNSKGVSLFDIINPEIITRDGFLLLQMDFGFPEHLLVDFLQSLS
Nature of the experiment: In vitro fluorescence-based CETP inhibition assay (BODIPY-CE transfer from donor to acceptor microemulsions). The format is biochemical. To be noted: recombinant CETP 0.14 ng/μl; transfer of fluorescent cholesteryl ester monitored over 2 hours; vs DMSO controls. As for the experimental part:
An in vitro fluorescence-based assay to identify CETP inhibitors was developed from modifications of the protocols outlined in Bisgaier et al., J Lipid Res., 34(9): 1625-34 (1993) and Epps et al., Chem Phys Lipids., 77(1): 51-63 (1995). Acceptor and donor lipid microemulsions were prepared according to Bisgaier et al., 1993, except that the buffer was prepared with 0.67 ug/mL human HDL (Calbiochem). Donor microemulsions contained the fluorescent cholesteryl ester analog BODIPY-CE (Molecular Probes), characterized by excitation and emission maxima at 503 nm and 518 nm, respectively. The CETP-mediated transfer of fluorescent cholesteryl ester to acceptor particles was monitored over a 2-hour time period using the FAM filter set (excitation 492 nm, emission 516 nm) in an MX3000P fluorescent plate reader (Stratagene). Recombinant CETP enzyme (Cardiovascular Targets) was used at 0.14 ng/μl, final concentration, to achieve lipid transfer. CETP inhibition by compounds was compared to DMSO controlsand graphed as a percentage of the control CETP activity over 2 hours. The IC50 curves for CETP inhibition were generated from the activity profiles. Active compounds were also tested for CETP inhibition as above, but in the presence of 3% human serum albumin, fraction V (Calbiochem).

IC50 data for 27 molecules are collected here from US8604055B2, “Substituted benzylamino quinolines as cholesterol ester-transfer protein inhibitors” (Dr. Reddy's Laboratories Ltd., priority 2004, dated 2013).

SMILES strings stand for the structures.

Broadly, the IC50 is the midpoint of a concentration-inhibition curve. Take `CCOC(=O)N(Cc1cc(C(F)(F)F)cc(C(F)(F)F)c1)Cc1cc2ccccc2nc1N(CC)CC1CCCCC1` [Example 42, (3,5-bis-trifluoromethyl-benzyl)-[2-(cyclohexylmethyl-ethyl-amino)-quinolin-3-ylmethyl]-carbamic acid ethyl ester]: the IC50 was no more than 5 µM. The result for `CCN(CC1CCC1)c1nc2ccccc2cc1CN(Cc1cc(C(F)(F)F)cc(C(F)(F)F)c1)C(=O)OC` [Example 45] reads no more than 5 µM; that for `CCN(CC1CCCC1)c1nc2onc(C)c2cc1CN(Cc1cc(C(F)(F)F)cc(C(F)(F)F)c1)C(=O)OC` [Example 32, (3,5-bis-trifluoromethyl-benzyl)-[6-(cyclopentylmethyl-ethyl-amino)-3-methyl-isoxazolo[5,4-b]pyridine-5-ylmethyl}-carbamic acid methyl ester], no more than 1 µM. The result for `Cc1nn(C)c2nc(N(C)CC3CCC3)c(CN(Cc3cc(C(F)(F)F)cc(C(F)(F)F)c3)c3nnn(C)n3)cc12` [Example 4, (5-{[(3,5-bis-trifluoromethyl-benzyl)-(2-methyl-2H-tetrazole-5-yl)-amino]-methyl}-1,3-dimethyl-1H-pyrazolo[3,4-b]pyridin-6-yl)-cyclobutylmethyl-methyl-amine] reads no more than 1 µM.

In the case of `Cc1cccc2cc(CN(Cc3cc(C(F)(F)F)cc(C(F)(F)F)c3)c3nnn(C(C)C)n3)c(N(CC3CC3)CC3CC3)nc12` [Example 85], the IC50 was no more than 1 µM.

Turning to `CCN(CC1CCCC1)c1nc2c(cc1CN(Cc1cc(C(F)(F)F)cc(C(F)(F)F)c1)c1nnn(C)n1)CCCC2` [Example 77], the IC50 is no more than 1 µM. For the molecule `CCOC(=O)NC(=S)N(Cc1cc(C(F)(F)F)cc(C(F)(F)F)c1)Cc1cc2ccccc2nc1N(CC)CC1CCCC1` [Example 49, 3-ethoxycarbonyl-1-(3,5-Bis-trifluoromethyl-benzyl)-1-[2-(cyclopentylmethyl-ethyl-amino)-quinolin-3-ylmethyl]-thiourea], the IC50 was no more than 5 µM. Next, `CCN(CC1CCC1)c1nc2ccccc2cc1CN(Cc1cc(C(F)(F)F)cc(C(F)(F)F)c1)c1nnn(C)n1` [Example 56]: no more than 1 µM; `CCCCN(CC)c1ncccc1CN(Cc1cc(C(F)(F)F)cc(C(F)(F)F)c1)c1nnn(C)n1` [Example 73]: no more than 5 µM; `CCCCN(CC)c1nc2ccccc2cc1CN(Cc1cc(C(F)(F)F)cc(C(F)(F)F)c1)c1nnn(C)n1` [Example 54]: no more than 1 µM. Next, `Cc1cccc2cc(CN(Cc3cc(C(F)(F)F)cc(C(F)(F)F)c3)c3nnn(CCO)n3)c(N(CC3CC3)CC3CC3)nc12` [Example 93, 2-{5-[[2-(bis-cyclopropylmethyl-amino)-8-methyl-quinoline-3-ylmethyl]-(3,5-bistrifluoromethyl-benzyl)-amino]-tetrazol-2-yl}-ethanol]: no more than 1 µM.

With `Cc1cccc2cc(CN(Cc3cc(C(F)(F)F)cc(C(F)(F)F)c3)c3ccc(Br)cn3)c(N(CC3CC3)CC3CC3)nc12` [Example 111, (3-{[(3,5-bis-trifluoromethyl-benzyl)-(5-bromo-pyridin-2-yl)-amino]-methyl}-8-methyl-quinolin-2-yl)-bis-cyclopropylmethyl-amine], the IC50 was no more than 1 µM.

For `CCN(c1nc2c(cc1CN(Cc1cc(C(F)(F)F)cc(C(F)(F)F)c1)c1nnn(C)n1)c(C)nn2C)C(C)C` [Example 7, (5-{[(3,5-bis-trifluoromethyl-benzyl)-(2-methyl-2H-tetrazole-5-yl)-amino]-methyl}-1,3-dimethyl-1H-pyrazolo[3,4-b]pyridin-6-yl)-ethyl-isopropyl-amine], the IC50 was no more than 1 µM. The result for `CCOC(=O)c1c(CN(Cc2cc(C(F)(F)F)cc(C(F)(F)F)c2)c2nnn(C)n2)c2ccccc2n1C(=O)C1CCCC1` [Example 127, 3-{[(3,5-bis-trifluoromethyl-benzyl)-(2-methyl-2H-tetrazol-5-yl)-amino]-methyl}-1-cyclopentanecarbonyl-1H-indole-2-carboxylic acid ethyl ester] reads no more than 1 µM; that for `CCN(CC1CCCC1)c1nc2ccccc2cc1CN(Cc1cc(C(F)(F)F)cc(C(F)(F)F)c1)C1=NCCO1` [Example 68, (3-{[(3,5-bis-trifluoromethyl-benzyl)-(4,5-dihydro-oxazol-2-yl)-amino]-methyl}-quinolin-2-yl)-cyclopentylmethyl-ethyl-amine], no more than 5 µM; that for `CCN(CC1CCCC1)c1nc2ccccc2cc1CN(Cc1cc(C(F)(F)F)cc(C(F)(F)F)c1)C(=O)OC` [Example 35, (3,5-bis-trifluoromethyl-benzyl)-[2-(cyclopentylmethyl-ethyl-amino)-quinolin-3-ylmethyl]-carbamic acid methyl ester], no more than 5 µM. Next, `Cc1cccc2cc(CN(Cc3cc(C(F)(F)F)cc(C(F)(F)F)c3)c3ncnc(Cl)n3)c(N(CC3CC3)CC3CC3)nc12` [Example 117, (3-{[(3,5-bis-trifluoromethyl-benzyl)-(4-chloro-[1,3,5]triazin-2-yl)-amino]-methyl}-8-methyl-quinolin-2-yl)-bis-cyclopropylmethyl-amine]: no more than 1 µM. Next, `CCN(CC1CCCC1)c1nc2ccccc2cc1CN(Cc1cc(C(F)(F)F)cc(C(F)(F)F)c1)c1nc(C)cs1` [Example 63]: no more than 5 µM; `CCN(CC1CCCC1)c1nc2ccccc2cc1CN(Cc1cc(C(F)(F)F)cc(C(F)(F)F)c1)Cc1nnn(C)n1` [Example 70, (3-{[(3,5-bis-trifluoromethyl-benzyl)-(2-methyl-2H-tetrazol-5-ylmethyl)-amino]-methyl}-quinolin-2-yl)-cyclopentylmethyl-ethyl-amine]: no more than 5 µM; `CCN(CC1CCCC1)c1nc2c(cc1CN(Cc1cc(C(F)(F)F)cc(C(F)(F)F)c1)c1nnn(C)n1)CCC2` [Example 76, (3-{[(3,5-bis-trifluoromethyl-benzyl)-(2-methyl-2H-tetrazole-5-yl)-amino]-methyl}-,6,7-dihydro-5H-[1]pyridine-2-yl)-cyclopentylmethyl-ethyl-amine]: no more than 1 µM.

For `CCN(CC1CCCC1)c1nc2c(cc1CN(Cc1cc(Cl)cc(Cl)c1)c1nnn(C)n1)c(C)nn2C` [Example 19, cyclopentylmethyl-(1,3-dimethyl-5-{[(2-methyl-2H-tetrazol-5-yl)-(3,5-dichlorobenzyl)-amino]-methyl}-1H-pyrazolo[3,4-b]pyridin-6-yl)-ethyl-amine], the IC50 is no more than 1 µM.

As to `CCN(CC1CC1)c1nc2ccccc2cc1CN(Cc1cc(C(F)(F)F)cc(C(F)(F)F)c1)c1nnn(C)n1` [Example 55], the concentration for half-maximal inhibition (IC50) was no more than 1 µM.

In the case of `Cc1nn(C)c2nc(N(CC3CC3)CC3CC3)c(CN(Cc3cc(Cl)cc(Cl)c3)c3nnn(C)n3)cc12` [Example 21, bis-cyclopropylmethyl-(5-{[(3,5-dichlorobenzyl)-(2-methyl-2H-tetrazol-5-yl)-amino]-methyl}-1,3-dimethyl-1H-pyrazolo[3,4-b]pyridin-6-yl)-amine], the IC50 was no more than 1 µM.

Regarding `CCN(CC1CCCC1)c1nc2onc(C)c2cc1CN(Cc1cc(C(F)(F)F)cc(C(F)(F)F)c1)c1nnn(C)n1` [Example 33, (5-{[(3,5-bis-trifluoromethyl-benzyl)-(2-methyl-2H-tetrazol-5-yl)-amino]-methyl}-3-methyl-isoxazolo[5,4-b]pyridine-6-yl)-cyclopentylmethyl-ethyl-amine], the IC50 was no more than 1 µM.

As to `CCN(CC1CCCC1)c1nc2c(cc1CN(Cc1cc(F)cc(F)c1)c1nnn(C)n1)c(C)nn2C` [Example 18, cyclopentylmethyl-ethyl-(5-{[(3,5-difluoro-benzyl)-(2-methyl-2H-tetrazol-5-yl)-amino]-methyl}-1,3-dimethyl-1H-pyrazolo[3,4-b]pyridine-6-yl)-amine], the IC50 was no more than 1 µM.

As for `Cn1nnc(N(Cc2cc(C(F)(F)F)cc(C(F)(F)F)c2)Cc2cc3cnn(C)c3nc2N(CC2CC2)CC2CC2)n1` [Example 13, (5-{[(3,5-bis-trifluoromethyl-benzyl)-(2-methyl-2H-tetrazol-5-yl)-amino]-methyl}-1-methyl-1H-pyrazolo[3,4-b]pyridin-6-yl)-bis-cyclopropylmethyl-amine], the IC50 was no more than 1 µM. The result for `CCN(CC1CCCC1)c1nc2c(cc1CN(Cc1cc(C(F)(F)F)cc(C(F)(F)F)c1)c1nnn(C)n1)c(C)nn2C` [Example 24, (5-{[(3,5-bis-trifluoromethyl-benzyl)-(2-methyl-2H-tetrazol-5-yl)-amino]-methyl}-1,3-dimethyl-1H-pyrazolo[3,4-b]pyridin-6-yl)-cyclopentylmethyl-ethyl-amine] reads no more than 1 µM.
